This is an account of results in patent US7592326B2, “Method for stimulating the immune, inflammatory or neuroprotective response” (priority 2004, dated 2009).

For data set [1], the system named is Plasmacytoid dendritic cells (pDCs). The experiment in a line: IFN secretion by human plasmacytoid dendritic cells. Format: cell-based. The conditions noted are these: two independent experiments in duplicate; data not shown. The procedure: Venipuncture was performed on consenting adults using approved protocols. Plasmacytoid dendritic cells (pDCs) were prepared, as previously described (Schroeder et al., 2005), using a 2-step procedure involving Percoll density centrifugation followed with selection for Blood Dendritic Cell Antigen (BDCA)-4 positive cells (Miltenyi Biotec, Inc., Auburn, Calif.). The capacity of c-di-GMP to induce IFN-alpha from these cells was assessed using cell culture and ELISA protocols also previously described (Schroeder et al., 2005) and was simultaneously compared to the […] produced by pDC in response to cells stimulated with CpG oligodeoxynucleotide (ODN)-2216 (Krieg, 2002).

The format of data set [2] is in vitro ADME, human. Here is the method:
Commercially supplied pooled human serum (100 uL) (Cambrex Bio Science Walkersville, Inc.) was diluted in ion-exchanged water. An aliquot of the resulting human serum solution was subjected to HPLC analysis (conditions: COSMOSIL 5C18-AR-II column (4.6×200 mm); buffer A; buffer B, 80% acetonitrile in water; gradient, 0-10 min A 100%, 10-60 min A:B=100:0 to A:B=40:60 in 50 min; detection 254 nm, flow rate, 1.0 mL/min, temperature 40° C.). Separately, a 100 uM of c-di-GMP solution in human serum was prepared by adding 100 uL of a 500 uM c-di-GMP aqueous solution to a mixture of 390 uL of human serum and 10 uL of 40 mM 2-methylbenzimidazole (an internal standard for estimating the extent of decomposition of c-di-GMP) in methanol. An aliquot of the test solution was diluted immediately after the preparation solution and then heated at 100° C. for 5 min to quench activity of enzymes. The resulting test sample was subjected to HPLC analysis after 24 h treatment. Peaks that appeared in both analyses were compared. Results are based on 3 independent experiments.

The test system of another data set is C. albicans. The experiment in a line: Candidiasis of oral mucosal surfaces and intestinal tract in mice (proposed). Format: in vivo, Candida albicans. The conditions noted are these: C. albicans in drinking water. The text has this: Dissemination to livers occurs and is 100% on days 5 to 15. The median kidney or liver CFU were 2 or 3 log10 CFU, respectively, on day 15; despite this, mortality was low through 21 days of infection.

The test system of another data set is JNK. The experiment in a line: Signaling in human DCs: JNK. The following applies: under the conditions tested. Format: cell-based. The procedure:
Human PBMC were isolated by Ficoll density gradient centrifugation from leukopacks supplied by the Department of Transfusion Medicine (Clinical Center, National Institute of Health, Bethesda, Md.). Monocytes were purified (>95%) from human PBMC with MACS CD14 monocyte isolation kit (Miltenyi Biotech Inc., Auburn, Calif.) according to the manufacturer's instruction. DCs were generated as described previously (Yang et al., 2001). In brief, DCs were generated by incubating purified monocytes at 2×10^5/ml in RPMI 1640 containing 10% FBS, 2 mM glutamine, 25 mM HEPES, 100 U/ml penicillin, 100 ug/ml streptomycin, 50 ng/ml recombinant human GM-CSF (PeproTech, Rocky Hill, N.J.), and 50 ng/ml recombinant human IL-4 (PeproTech) at 37° C. in a CO2 (5%) incubator for 7 days. On day 3 and 5 of the incubation, half of the culture medium was replaced with pre-warmed (37° C.) fresh GM-CSF- and IL-4-containing medium. On day 7, DCs were collected, washed three times with PBS, and serum-starved for 8 hours by incubating in serum-free RPMI-1640 containing GM-CSF and IL-4 (2×10^5/ml) at 37° C. in a CO2 (5%) incubator. Subsequently, DCs (2×10^6/sample) were incubated at 37° C. in the absence or presence of c-di-GMP or GMP (Sigma, St. Louis, Mo.) at concentrations specified for 5 or 30 minutes. […]

Data set [3] has as its system K. pneumoniae strain 43816, serotype 2. The experiment in a line: Survival in murine Klebsiella pneumonia. Format: in vivo.
The subject of data set [4] is monocytes and granulocytes. The experiment in a line: Monocyte and granulocyte recruitment after intraperitoneal injection (FACS of peritoneal fluid). Format: in vivo, C57BL/6 mice. Here is the method:
C57BL/6 mice were injected with a volume of 500 ul containing 200 nmol c-di-GMP. […] Fluid was incubated in PBS BSA azide +24G2 (anti Fc) for 15 min at 4° C., washed in PBS, washed in PBS then stained and analyzed by FACs analysis (PBS BSA azide, 30 min 4° C.). Cells were stained with directly coupled fluorescent mAbs combinations in […] FACS buffer and further collected on a FACScalibur cytofluorometer (Becton Dickinson, BD). The following mAbs were purchased: fluorescein (FITC)-coupled M1/70 (anti-CD11b, BD Pharmingen), phycoerythrin (PE)-coupled 1A8 (anti-LY-6G, BD Pharmingen), 7/4 (Caltag), allophycocyanin (APC)-coupled F4/80 (Caltag). Cells were gated according to size and scatter to eliminate dead cells and debris from analysis.

SMILES strings stand for the structures.

For the compound `Nc1nc(=O)c2ncn([C@@H]3OC4COP(=O)(O)O[C@H]5[C@@H](O)[C@H](n6cnc7c(=O)nc(N)[nH]c76)O[C@@H]5COP(=O)(O)OC4C3O)c2[nH]1` (stereo partly drawn) [c-di-GMP, Bis(3′→5′)-cyclic diguanylic acid], the “induction of Type I IFN from pDC” value in data set [1] is recorded as “negative”. Further, the “stability in human serum” value in data set [2] is “stable”. Moreover, in the data set on C. albicans, the “mucosal infection and dissemination compared to untreated controls” value is given as “reduce mucosal infection”. The “activation of JNK” value with JNK is recorded as “did not activate”. The “survival following i.t. Klebsiella challenge” value in data set [3] (200 nmoles i.n. 48 and 24 hrs prior, Balb/c mice, vehicle approx. 10%, p<0.05, FIG. 15) was “significantly increased”; in data set [3] (200 nmoles s.q. 48 and 24 hrs prior, Balb/c mice, p<0.05, FIG. 15) it was “significantly increased”; in data set [3] (given concomitantly and 6 hrs post K. pneumoniae, data not shown), “no increase in survival”. Moreover, the “recruitment of F4/80^high LY-6G^med (monocytes) and F4/80^med LY-6G^high (granulocytes)” value in data set [4] (200 nmol i.p., peritoneal lavage at 18 hours) is reported as “induced the recruitment”. Also, the “macrophage and granulocyte recruitment in vivo relative to comparators” value in data set [4] (under the conditions tested) is “to a greater extent than CpG ODN and LPS”.
